Measured values from BindingDB's records for patent US10392346 (Topivert Pharma, 2019).

Legend:
[1] = target: Proto-oncogene tyrosine-protein kinase Src (Homo sapiens, UniProt P12931); experiment: Enzyme Inhibition
Description: The relevant enzyme (3000 ng/mL or 2000 ng/mL respectively, 2.5 μL) is incubated with the test compound (either 1 μg/mL, 0.1 μg/mL, 0.01 μg/mL, or 0.001 μg/mL, 2.5 μL each) for 2 hr at RT. The FRET peptides (8 μM, 2.5 μL), and appropriate ATP solutions (2.5 μL, 800 μM for c-Src, and 60 μM ATP for Syk) are then added to the enzymes/compound mixtures and the mixture incubated for 1 hr. Development reagent (protease, 5 μL) is added for 1 hr prior to detection in a fluorescence microplate reader (Varioskan Flash, ThermoFisher Scientific).

[2] = target: Glycogen synthase kinase-3 alpha (Homo sapiens, UniProt P49840); experiment: Enzyme Inhibition
Chain of Glycogen synthase kinase-3 alpha (P49840 whole entry, canonical isoform): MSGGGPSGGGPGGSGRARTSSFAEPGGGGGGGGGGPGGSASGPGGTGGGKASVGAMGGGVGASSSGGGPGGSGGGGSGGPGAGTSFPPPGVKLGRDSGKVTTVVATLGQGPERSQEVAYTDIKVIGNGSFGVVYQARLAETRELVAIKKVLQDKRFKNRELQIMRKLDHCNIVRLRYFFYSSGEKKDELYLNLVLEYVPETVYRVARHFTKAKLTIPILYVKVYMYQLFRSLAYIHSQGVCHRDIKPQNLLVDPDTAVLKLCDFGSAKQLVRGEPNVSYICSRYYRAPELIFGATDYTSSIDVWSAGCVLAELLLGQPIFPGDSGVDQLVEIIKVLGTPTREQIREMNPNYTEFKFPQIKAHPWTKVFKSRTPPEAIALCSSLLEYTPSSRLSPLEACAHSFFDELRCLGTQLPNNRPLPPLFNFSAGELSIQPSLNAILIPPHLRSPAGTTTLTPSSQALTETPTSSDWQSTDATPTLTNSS
Description: In addition, the concentrations of test compound employed are either 10 μg/mL, 1 μg/mL, 0.1 μg/mL, or 0.01 μg/m: Method 1: The inhibitory activities of test compounds against the p38 MAPKα isoform (MAPK14: Invitrogen) are evaluated indirectly by determining the level of activation/phosphorylation of the down-stream molecule, MAPKAP-K2. The p38 MAPKα protein (80 ng/mL, 2.5 μL) is mixed with the test compound (2.5 μL of either 4 μg/mL, 0.4 μg/mL, 0.04 μg/mL or 0.004 μg/mL) for 2 hr at RT. […] The mixture is incubated for 1 hr at RT. Development reagent (protease, 5 μL) is added for 1 hr prior to detection in a fluorescence microplate reader (Varioskan Flash, ThermoFisher Scientific).

Chain of Proto-oncogene tyrosine-protein kinase Src (P12931 2-536 limits assumed): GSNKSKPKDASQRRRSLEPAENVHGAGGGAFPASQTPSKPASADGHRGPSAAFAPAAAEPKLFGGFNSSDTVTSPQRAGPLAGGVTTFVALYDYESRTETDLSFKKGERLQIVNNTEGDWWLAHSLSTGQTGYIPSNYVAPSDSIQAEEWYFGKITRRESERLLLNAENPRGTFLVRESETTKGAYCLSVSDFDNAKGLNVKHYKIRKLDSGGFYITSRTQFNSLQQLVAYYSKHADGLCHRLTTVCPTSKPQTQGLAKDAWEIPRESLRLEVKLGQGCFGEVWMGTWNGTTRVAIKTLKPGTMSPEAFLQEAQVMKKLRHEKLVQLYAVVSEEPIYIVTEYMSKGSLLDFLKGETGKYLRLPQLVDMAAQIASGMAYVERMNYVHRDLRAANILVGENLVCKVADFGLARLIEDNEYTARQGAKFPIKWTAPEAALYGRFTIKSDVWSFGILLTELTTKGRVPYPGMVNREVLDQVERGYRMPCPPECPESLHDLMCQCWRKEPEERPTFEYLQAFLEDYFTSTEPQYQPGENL

| IC50 [1] [nM] | IC50 [2] [nM] | Compound |
| --- | --- | --- |
| 20 | 9190 | COc1cc(Nc2cc(Oc3ccc(NC(=O)Nc4cc(C(C)(C)C)cc(NS(C)(=O)=O)c4OC)c4ccccc34)ccn2)ccc1C(=O)N(C)CCCN1CCS(=O)(=O)CC1 [US10392346, Example 17(ah)] |
| 16 | 4000 | COc1cc(Nc2cc(Oc3ccc(NC(=O)Nc4cc(C(C)(C)C)cc(N[S+](C)[O-])c4OC)c4ccccc34)ccn2)ccc1C(=O)NCCN1CCN(C)CC1 (stereo unspecified) [US10392346, Example 17(a)] |
| 17 | 2740 | COc1cc(Nc2cc(Oc3ccc(NC(=O)Nc4cc(C(C)(C)C)cc(NS(C)(=O)=O)c4OC)c4ccccc34)ccn2)ccc1C(=O)N(C)CCCN1CC[S+]([O-])CC1 [US10392346, Example 17(ag)] |
